We go through 29 molecules from patent US20090118276A1, “THIENOPYRIMIDINES, THIENOPYRIDINES, AND PYRROLOPYRIMIDINES AS B-RAF INHIBITORS” (priority 2007, published 2009).

One assay deals with T1, Flag/GST-tagged recombinant human B-Raf (Homo sapiens, UniProt P15056).
T1 construct: Flag; GST; made in house; host or cells: Sf9 insect cells (B-Raf); E. coli (MEK1-GST)
T1 sequence (P15056 whole entry): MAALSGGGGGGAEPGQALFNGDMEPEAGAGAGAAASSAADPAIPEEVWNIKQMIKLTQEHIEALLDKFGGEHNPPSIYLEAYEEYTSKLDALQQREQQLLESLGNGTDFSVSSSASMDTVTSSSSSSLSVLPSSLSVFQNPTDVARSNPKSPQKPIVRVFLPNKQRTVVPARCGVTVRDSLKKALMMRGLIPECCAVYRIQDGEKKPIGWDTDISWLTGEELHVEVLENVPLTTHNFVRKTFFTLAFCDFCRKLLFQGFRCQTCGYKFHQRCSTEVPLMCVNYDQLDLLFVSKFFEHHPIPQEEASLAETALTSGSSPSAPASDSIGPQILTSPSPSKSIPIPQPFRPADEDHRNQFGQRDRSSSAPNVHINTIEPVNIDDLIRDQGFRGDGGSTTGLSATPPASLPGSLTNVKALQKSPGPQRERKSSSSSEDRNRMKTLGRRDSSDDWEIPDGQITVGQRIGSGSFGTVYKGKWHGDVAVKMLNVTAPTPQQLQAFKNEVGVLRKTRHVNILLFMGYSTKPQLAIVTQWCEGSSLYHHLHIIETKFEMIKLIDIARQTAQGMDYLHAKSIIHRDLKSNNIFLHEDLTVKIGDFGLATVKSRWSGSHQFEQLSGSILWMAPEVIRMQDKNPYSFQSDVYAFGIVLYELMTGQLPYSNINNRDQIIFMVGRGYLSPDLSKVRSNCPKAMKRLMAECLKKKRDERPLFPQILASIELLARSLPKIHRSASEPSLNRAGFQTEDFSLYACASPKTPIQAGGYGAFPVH
The assay is described as follows: B-Raf Kinase to MEK1 ELISA. In kind it is biochemical.
Conditions: not given
As for the experimental part:
B-Raf Kinase to MEK1 ELISA
B-Raf1 Kinase Assay Procedure: B-Raf-1 is used to phosphorylate GST-MEK1.
B-Raf Assay Stock Solutions:
1. Assay Dilution Buffer (ADB): 20 mM MOPS, pH 7.2, 25 mM β-glycerol phosphate, 5 mM EGTA, 1 mM sodium orthovanadate, 1 mM dithiothreitol, 0.01% Triton X-100.
2. Magnesium/ATP Cocktail: ADB solution (minus Triton X-100) plus 200 μM cold ATP and 40 mM magnesium chloride.
4. Active Kinase: Active B-Raf: used at 0.2 nM per assay point.
8. Anti pMEK Ab (Upstate)
9. Anti-rabbit Ab/Europium conjugate (Wallac)
1. Add 25 μl of ADB containing B-Raf and Mek per assay (i.e. per well of a 96 well plate)
2. Add 25 μl of 0.2 mM ATP and 40 mM magnesium chloride in Magnesium/ATP Cocktail.
3. Incubate for 45 minutes at RT with occasional shaking.
4. Transfer this mixture to an anti-GST Ab coated 96 well plate (Nunc Immunosorb plates coated o/n with a-GST. Plate freshly washed 3× with TBS-T before use.
5. Incubate o/n at 30° C. in cold room.
6. Wash 3× with TBST, add Anti-Phospho MEK1 (1:1000, dilution depends upon lot)
7. Incubate for 60 minutes at RT in a shaking incubator
8. Wash 3× with TBST, add Anti-rabbit Ab/Europium conjugate (Wallac) (1:500, dilution depends upon lot)
9. Incubate for 60 minutes at RT on a platform shaker.
10. Wash plate 3× with TBS-T
11. Add 100 μl of Wallac Delfia Enhancement Solution and shake for 10 minutes.
12. Read plates in Wallac Victor model Plate Reader.
13. Collect data analyze in Excel for single point and IC50 determinations.
The % inhibition was determined for each compound concentration.
A general note: In an ELISA, binding on a coated surface is turned into a signal by an enzyme label.
With `O=C(Nc1cccc(-c2ncnc3c2ccn3-c2ccc(CN3CCNCC3)cc2)c1)c1cccc(C(F)(F)F)c1` [Compound 112, N-(3-{7-[4-(piperazin-1-ylmethyl)phenyl]-7H-pyrrolo[2,3-d]pyrimidin-4-yl}phenyl)-3-(trifluoromethyl)benzamide], the concentration for half-maximal inhibition (IC50) (usually the concentration needed to halve the response being measured) was determined as 0.191 µM. On to `O=C(Nc1cccc(-c2ncnc3c2cc(-c2ccncc2)n3CCN2CCCC2)c1)c1cccc(C(F)(F)F)c1` [Compound 108, N-{3-[6-pyridin-4-yl-7-(2-pyrrolidin-1-ylethyl)-7H-pyrrolo[2,3-d]pyrimidin-4-yl]phenyl}-3-(trifluoromethyl)benzamide], for which the half-maximal inhibitory concentration (IC50) amounted to 0.0685 µM. The same measure, in the same setting: with `O=C(Nc1cccc(-c2ncnc3sc(-c4ccncc4)cc23)c1)Nc1cccc(C(F)(F)F)c1` [Compound 41, N-[3-(6-pyridin-4-ylthieno[2,3-d]pyrimidin-4-yl)phenyl]-N′-[3-(trifluoromethyl)phenyl]urea] the figure was 1.79 µM; with `O=C(Nc1cccc(-c2ncnc3sc(-c4ccncc4)cc23)c1)Nc1ccc(Cl)c(C(F)(F)F)c1` [Compound 39, N-[4-chloro-3-(trifluoromethyl)phenyl]-N′-[3-(6-pyridin-4-ylthieno[2,3-d]pyrimidin-4-yl)phenyl]urea], 1.4 µM. Same read-out and setting: next, `COc1ccc(-n2ccc3c(-c4cccc(NC(=O)c5cccc(C(F)(F)F)c5)c4)ncnc32)cc1` [Compound 103, N-{3-[7-(4-methoxyphenyl)-7H-pyrrolo[2,3-d]pyrimidin-4-yl]phenyl}-3-(trifluoromethyl)benzamide]: 5.71 µM; `Cc1ccc(NC(=O)Nc2cccc(-c3ncnc4sc(-c5ccncc5)cc34)c2)cc1C` [Compound 44, N-(3,4-dimethylphenyl)-N′-[3-(6-pyridin-4-ylthieno[2,3-d]pyrimidin-4-yl)phenyl]urea]: 1.53 µM.

Take `O=C(Nc1cccc(-c2ncnc3cc(-c4ccncc4)sc23)c1)c1cccc(C(F)(F)F)c1` [Compound 6, N-[3-(6-pyridin-4-ylthieno[3,2-d]pyrimidin-4-yl)phenyl]-3-(trifluoromethyl)benzamide]: the IC50 turned out to be 0.54 µM.

For `COc1ccc(C(=O)Nc2cccc(-c3ncnc4sc(-c5ccncc5)cc34)c2)cc1C(F)(F)F` [Compound 35, 4-methoxy-N-[3-(6-pyridin-4-ylthieno[2,3-d]pyrimidin-4-yl)phenyl]-3-(trifluoromethyl)benzamide], the IC50 is 3.46 µM. The same measure, in the same setting: next, `N#Cc1ccccc1Cn1ccc2c(-c3cccc(NC(=O)c4cccc(C(F)(F)F)c4)c3)ncnc21` [Compound 94, N-{3-[7-(2-cyanobenzyl)-7H-pyrrolo[2,3-d]pyrimidin-4-yl]phenyl}-3-(trifluoromethyl)benzamide]: 2.47 µM. Still for that read-out and setting: with `O=C(Nc1cccc(-c2ncnc3sc(-c4ccncc4)cc23)c1)c1ccc(F)c(C(F)(F)F)c1` [Compound 38, 4-fluoro-N-[3-(6-pyridin-4-ylthieno[2,3-d]pyrimidin-4-yl)phenyl]-3-(trifluoromethyl)benzamide] the figure was 0.3 µM; with `CN(C)c1ccc(-n2ccc3c(-c4cccc(NC(=O)c5cccc(C(F)(F)F)c5)c4)ncnc32)cc1` [Compound 107, N-(3-{7-[4-(dimethylamino)phenyl]-7H-pyrrolo[2,3-d]pyrimidin-4-yl}phenyl)-3-(trifluoromethyl)benzamide], 6.57 µM. On the same count and under the same terms, with `O=C(Nc1ccc(Cl)cc1)Nc1cccc(-c2ncnc3sc(-c4ccncc4)cc23)c1` [Compound 46, N-(4-chlorophenyl)-N′-[3-(6-pyridin-4-ylthieno[2,3-d]pyrimidin-4-yl)phenyl]urea] the figure was 1.23 µM; with `O=C(Nc1cccc(-c2ncnc3c2ccn3Cc2ccncc2)c1)c1cccc(C(F)(F)F)c1` [Compound 98, N-{3-[7-(pyridin-4-ylmethyl)-7H-pyrrolo[2,3-d]pyrimidin-4-yl]phenyl}-3-(trifluoromethyl)benzamide], 1.02 µM; with `CN(C)Cc1ccc(-n2ccc3c(-c4cccc(NC(=O)c5cccc(C(F)(F)F)c5)c4)ncnc32)cc1` [Compound 111, N-[3-(7-{4-[(dimethylamino)methyl]phenyl}-7H-pyrrolo[2,3-d]pyrimidin-4-yl)phenyl]-3-(trifluoromethyl)benzamide], 0.432 µM.

With `O=C(Nc1cccc(-c2ncnc3sc(-c4ccnc(NCCN5CCOCC5)c4)cc23)c1)c1cccc(C(F)(F)F)c1` [Compound 86, N-[3-(6-{2-[(2-morpholin-4-ylethyl)amino]pyridin-4-yl}thieno[2,3-d]pyrimidin-4-yl)phenyl]-3-(trifluoromethyl)benzamide], the concentration for half-maximal inhibition (IC50) was determined as 0.144 µM. The same measure, in the same setting: next, `O=C(Nc1cccc(Cl)c1)Nc1cccc(-c2ncnc3sc(-c4ccncc4)cc23)c1` [Compound 45, N-(3-chlorophenyl)-N′-[3-(6-pyridin-4-ylthieno[2,3-d]pyrimidin-4-yl)phenyl]urea]: 8.75 µM; `Cc1ccc(C(=O)Nc2cccc(-c3ncnc4sc(-c5ccncc5)cc34)c2)cc1C(F)(F)F` [Compound 37, 4-methyl-N-[3-(6-pyridin-4-ylthieno[2,3-d]pyrimidin-4-yl)phenyl]-3-(trifluoromethyl)benzamide]: 2.61 µM; `COc1ccc(C(=O)Nc2cccc(-c3c(C#N)cnc4cc(-c5ccncc5)sc34)c2)cc1C(F)(F)F` [Compound 7, N-[3-(6-cyano-2-pyridin-4-ylthieno[3,2-b]pyridin-7-yl)phenyl]-4-methoxy-3-(trifluoromethyl)benzamide]: 9.6 µM.

The same assay, now with this note: phosphorylation of GST-MEK1 by B-Raf (0.2 nM), phospho-MEK1 antibody/Europium readout; compound concentrations from 1 μM to 3 nM or 0.1 μM to 300 pm in half log dilutions; read-out: IC50.
As for `NC(=O)c1cc2c(-c3cccc(NC(=O)c4cccc(C(F)(F)F)c4)c3)ncnc2s1` [Compound 89, 4-(3-{[3-(trifluoromethyl)benzoyl]amino}phenyl)thieno[2,3-d]pyrimidine-6-carboxamide], the IC50 turned out to be 2.72 µM. Still for that read-out and setting: next, `N#Cc1cc2c(-c3cccc(NC(=O)c4cccc(C(F)(F)F)c4)c3)ncnc2s1` [Compound 88, N-[3-(6-cyanothieno[2,3-d]pyrimidin-4-yl)phenyl]-3-(trifluoromethyl)benzamide]: 5.98 µM; `O=C(Nc1cccc(-c2ncnc3sc(-c4cccnc4)cc23)c1)c1cccc(C(F)(F)F)c1` [Compound 75, N-[3-(6-pyridin-3-ylthieno[2,3-d]pyrimidin-4-yl)phenyl]-3-(trifluoromethyl)benzamide]: 1.11 µM; `O=C(Nc1cccc(-c2ncnc3sc(-c4ccnc(NCCCn5ccnc5)c4)cc23)c1)c1cccc(C(F)(F)F)c1` [Compound 87, N-{3-[6-(2-{[3-(1H-imidazol-1-yl)propyl]amino}pyridin-4-yl)thieno[2,3-d]pyrimidin-4-yl]phenyl}-3-(trifluoromethyl)benzamide]: 0.158 µM. Consider `CNC(=O)c1cc(-c2cc3c(-c4cccc(NC(=O)c5cccc(C(F)(F)F)c5)c4)ncnc3s2)ccn1` [Compound 85, N-methyl-4-[4-(3-{[3-(trifluoromethyl)benzoyl]amino}phenyl)thieno[2,3-d]pyrimidin-6-yl]pyridine-2-carboxamide], for which the IC50 came to 0.73 µM. Take `O=C(Nc1cccc(-c2ncnc3sc(-c4ccc(Cl)cc4)cc23)c1)c1cccc(C(F)(F)F)c1` [Compound 79, N-{3-[6-(4-chlorophenyl)thieno[2,3-d]pyrimidin-4-yl]phenyl}-3-(trifluoromethyl)benzamide]: the IC50 came to 4.67 µM.

Regarding `O=C(Nc1cccc(-c2ncnc3sc(C4=CCNCC4)cc23)c1)c1cccc(C(F)(F)F)c1` [Compound 67, N-{3-[6-(1,2,3,6-tetrahydropyridin-4-yl)thieno[2,3-d]pyrimidin-4-yl]phenyl}-3-(trifluoromethyl)benzamide], the half-maximal inhibitory concentration (IC50) is 2.5 µM.

Regarding `O=C(Nc1cccc(-c2ncnc3[nH]c(-c4ccncc4)cc23)c1)c1cccc(C(F)(F)F)c1` [Compound 101, N-[3-(6-pyridin-4-yl-7H-pyrrolo[2,3-d]pyrimidin-4-yl)phenyl]-3-(trifluoromethyl)benzamide], the IC50 was 0.0345 µM.

As for `CC(=O)c1ccc(-c2cc3c(-c4cccc(NC(=O)c5cccc(C(F)(F)F)c5)c4)ncnc3s2)cc1` [Compound 80, N-{3-[6-(4-acetylphenyl)thieno[2,3-d]pyrimidin-4-yl]phenyl}-3-(trifluoromethyl)benzamide], the IC50 amounted to 2.73 µM. Turning to `N#Cc1ccc(-c2cc3c(-c4cccc(NC(=O)c5cccc(C(F)(F)F)c5)c4)ncnc3s2)cc1` [Compound 77, N-{3-[6-(4-cyanophenyl)thieno[2,3-d]pyrimidin-4-yl]phenyl}-3-(trifluoromethyl)benzamide], the IC50 stood at 1.23 µM.

Take `N#Cc1cnc2cc(-c3ccncc3)sc2c1-c1cccc(NC(=O)c2cccc(C(F)(F)F)c2)c1` [Compound 5, N-[3-(6-cyano-2-pyridin-4-ylthieno[3,2-b]pyridin-7-yl)phenyl]-3-(trifluoromethyl)benzamide]: the IC50 was 5.94 µM.
